{"source": "patent US20240016819A1", "about": "“CANNABINOIDS FOR USE IN THE TREATMENT OF EPILEPSY” (GW RESEARCH LIMITED, priority 2020, published 2024)", "system": "seizures in patients with TSC", "test": "Mean total seizures over time in TSC patients after administration of CBD (FIG. 2)", "type": "in vivo, human", "conditions": "starting dose 5 mg/kg/day, 2 week titration period", "method": "Patients with TSC were administered a highly purified extract of cannabidiol (CBD) obtained from a cannabis plant described herein. Similar to Example 1, patients with a TSC diagnosis were administered a starting dose of 5 mg/kg/day CBD in addition to their baseline anti-epileptic drug (AED) regimen or placebo.\nThe daily dose was increased by 5 mg/kg increments until intolerance occurred or a maximum dose of 25 mg/kg/day was achieved. The starting dose increase from 5 mg/kg/day to 10 mg/kg/day occurred 7 days after administration of the first dose of CBD. […] The titration period occurred over two weeks. For patients in need of further seizure reduction, the dosage of 20 mg/kg/day was increased up to 25 mg/kg/day after one week.\nAll patients were taking at least two concomitant anti-epileptic drugs. These included clobazam; levetiracetam; topiramate; stiripentol; phenobarbital; lacsamide; valproic acid; zonisamide. The average number of concomitant antiepileptic drugs being taken was 2.7. The majority took either clobazam and/or valproic acid.\nPrior to treatment with CBD, patients recorded the number of seizures they experienced. This established the baseline levels. During the course of treatment, patients recorded the number of seizures experienced each day.", "data": [{"smiles": "C=C(C)[C@@H]1CCC(C)=C[C@H]1c1c(O)cc(CCCCC)cc1O", "note": "[CBD Extract, Cannabidiol]", "values": [{"measurement": "mean total seizures over time", "result": "starts decreasing during the titration period"}]}]}
